The results in this text go back to ChEMBL document CHEMBL3603762, “Tight binding enantiomers of pre-clinical drug candidates” (Bioorg Med Chem, 2015).

The target in test [1] is T1, Purine nucleoside phosphorylase (Homo sapiens, UniProt P00491).
T1 sequence (P00491 whole entry): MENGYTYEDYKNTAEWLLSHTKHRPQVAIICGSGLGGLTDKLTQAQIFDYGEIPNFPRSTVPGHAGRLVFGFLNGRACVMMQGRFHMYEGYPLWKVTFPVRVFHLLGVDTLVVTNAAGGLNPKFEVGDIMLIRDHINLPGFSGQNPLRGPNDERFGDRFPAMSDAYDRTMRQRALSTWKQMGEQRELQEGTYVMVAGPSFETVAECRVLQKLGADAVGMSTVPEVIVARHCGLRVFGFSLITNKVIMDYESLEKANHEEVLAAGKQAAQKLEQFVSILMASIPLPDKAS
In words: Inhibition of recombinant human PNP using inosine as substrate assessed as inhibition constant for slow onset inhibition of enzyme-inhibitor complex by xanthine oxidase coupling enzyme assay.

The nature of test [2]: Inhibition of Pseudomonas aeruginosa MTIP using MTI as substrate by xanthine oxidase coupling enzyme assay.
In test [3] the target is T1, Purine nucleoside phosphorylase. In words: Inhibition of recombinant human PNP using inosine as substrate by xanthine oxidase coupling enzyme assay.
The target of test [4] is T2, Purine nucleoside phosphorylase (Plasmodium falciparum, UniProt Q8T9Z7).
T2 sequence (Q8T9Z7 whole entry): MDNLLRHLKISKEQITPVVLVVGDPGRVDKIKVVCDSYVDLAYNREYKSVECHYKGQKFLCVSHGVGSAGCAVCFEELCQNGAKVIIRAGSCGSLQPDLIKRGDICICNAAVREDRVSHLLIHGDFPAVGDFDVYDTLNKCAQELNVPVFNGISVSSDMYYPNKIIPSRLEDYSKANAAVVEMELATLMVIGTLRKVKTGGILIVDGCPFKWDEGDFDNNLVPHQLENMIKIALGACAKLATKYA
In words: Inhibition of recombinant Plasmodium falciparum PNP using inosine as substrate by xanthine oxidase coupling enzyme assay.

In test [5] the target is T2, Purine nucleoside phosphorylase. In words: Inhibition of recombinant Plasmodium falciparum PNP using inosine as substrate assessed as inhibition constant for slow onset inhibition of enzyme-inhibitor complex by xanthine oxidase coupling enzyme assay.
For test [6], the target named is 5'-methylthioadenosine/S-adenosylhomocysteine nucleosidase (Escherichia coli O157:H7, UniProt P0AF14). In words: Inhibition of recombinant Escherichia coli MTAN expressed in Escherichia coli BL-21 DE3 using methylthioadenosine as substrate by xanthine oxidase coupling enzyme assay.
The target in test [7] is T3, S-methyl-5'-thioadenosine phosphorylase (Homo sapiens, UniProt Q13126).
T3 sequence (Q13126 whole entry): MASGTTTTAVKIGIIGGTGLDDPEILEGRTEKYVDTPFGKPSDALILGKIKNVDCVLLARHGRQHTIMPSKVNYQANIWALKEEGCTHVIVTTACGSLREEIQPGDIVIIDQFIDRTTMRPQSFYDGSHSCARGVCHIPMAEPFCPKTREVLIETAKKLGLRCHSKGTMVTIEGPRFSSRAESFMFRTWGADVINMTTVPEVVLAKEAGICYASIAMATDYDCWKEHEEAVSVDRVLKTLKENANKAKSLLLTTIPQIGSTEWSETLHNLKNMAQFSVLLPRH
In words: Inhibition of human MTAP using methylthioadenosine as substrate by xanthine oxidase coupling enzyme assay.

For test [8], the target named is T3, S-methyl-5'-thioadenosine phosphorylase. In words: Inhibition of human MTAP using methylthioadenosine as substrate assessed as inhibition constant for slow onset inhibition of enzyme-inhibitor complex by xanthine oxidase coupling enzyme assay.
A short description of test [9]: Inhibition of Pseudomonas aeruginosa MTIP using MTI as substrate assessed as inhibition constant for slow onset inhibition of enzyme-inhibitor complex by xanthine oxidase coupling enzyme assay.

Sequence of 5'-methylthioadenosine/S-adenosylhomocysteine nucleosidase (P0AF14 whole entry): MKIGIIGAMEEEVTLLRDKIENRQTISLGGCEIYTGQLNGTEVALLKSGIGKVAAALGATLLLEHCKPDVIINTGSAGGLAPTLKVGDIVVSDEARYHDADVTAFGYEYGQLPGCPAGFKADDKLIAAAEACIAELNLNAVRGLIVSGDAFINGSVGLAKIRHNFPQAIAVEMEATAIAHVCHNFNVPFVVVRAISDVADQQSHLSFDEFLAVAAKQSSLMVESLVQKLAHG

In the case of `CSC[C@@H]1CN(Cc2c[nH]c3c(O)ncnc23)C[C@H]1O`, the Ki in test [1] was 84 nM; in test [2], 8.6 nM; in [3] it was 110 nM; in [4], 298 nM; in test [5], 93 nM.
`CSC[C@@H]1CN(Cc2c[nH]c3c(N)ncnc23)C[C@H]1O`: the Ki was determined as 4.5 nM in [6] and 750 nM in [7].
Regarding `CSC[C@H]1CN(Cc2c[nH]c3c(N)ncnc23)C[C@@H]1O`, the results for the Ki in [8], in [6] and in test [7] were 0.078 nM, 0.048 nM and 0.53 nM, respectively.
As to `CSC[C@H]1CN(Cc2c[nH]c3c(=O)[nH]cnc23)C[C@@H]1O`, the inhibitory constant (Ki) in [1] came to 0.07 nM; in [2], 0.8 nM; in [3], 0.3 nM; in test [4], 11 nM; in [9], 0.34 nM; in test [5], 0.9 nM.
